Source: patent publication US5622982A, “Acylated aminoalkanimidazoles and - triazoles” (Sandoz Ltd., priority 1994, dated 1997)
Like-named read-outs stand apart in the source and are kept apart here.

Tests used:
Format in all cases: cell-based
[1] = molecular target: T1, 25(OH)D3-1-hydroxylase (Homo sapiens, UniProt O15528); assay: Inhibition of vitamin D3-1-hydroxylase (oxidation of 3H-25(OH)D3, test a)); details: for IC50: test a), human keratinocytes, 1 hour, without calcitriol pretreatment
T1 construct: Confluent cultures of human keratinocytes in KGM; endogenous in cells; host or cells: normal human epidermal keratinocytes (adult skin from mammary reduction), generally second passage
T1 sequence (O15528 1-508): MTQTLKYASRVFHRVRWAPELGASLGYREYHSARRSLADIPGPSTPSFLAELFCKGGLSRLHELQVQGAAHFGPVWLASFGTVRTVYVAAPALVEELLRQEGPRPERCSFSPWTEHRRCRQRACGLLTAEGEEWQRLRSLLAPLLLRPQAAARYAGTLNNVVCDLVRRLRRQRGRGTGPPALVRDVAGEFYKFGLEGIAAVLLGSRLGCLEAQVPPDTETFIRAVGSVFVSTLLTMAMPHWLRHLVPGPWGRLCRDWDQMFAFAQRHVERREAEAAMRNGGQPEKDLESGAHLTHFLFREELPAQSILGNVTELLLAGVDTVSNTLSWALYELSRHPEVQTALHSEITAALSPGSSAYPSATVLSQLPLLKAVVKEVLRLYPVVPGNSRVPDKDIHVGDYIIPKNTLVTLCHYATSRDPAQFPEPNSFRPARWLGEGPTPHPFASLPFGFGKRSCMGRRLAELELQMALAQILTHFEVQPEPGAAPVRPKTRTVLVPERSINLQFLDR
Description: Activity of the 1-hydroxylase:
(§1) a) Selective inhibition of Vitamin D3--hydroxylases:
(§2) Confluent cultures of human keratinocytes in KGM at low calcium (0.06 mM) have a high capacity to produce calcitriol via the 1-hydroxylase, however, activities of sequential metabolism via side chain oxidation are almost entirely lacking. Therefore, the inhibition of the 1-hydroxylase in the confluent cultures is determined directly, and the inhibition of sequential metabolism after up-regulation of the respective hydroxylases, e.g. the 24-hydroxylase, is determined by an overnight (17 hours) pretreatment with 10 nM of calcitriol as described by Bikle et al. (1986) (supra).
(§3) The activities of the 1-hydroxylase and of particular steps in the sequential metabolism [e.g. formation of 1,24,25(OH)3 D3+1,24oxo,25(OH)2 D3] which still retain calcitriol-like activities, the formation of 3-epi calcitriol metabolites, of polar metabolites retained in the water phase and those indicative of side-chain cleavage and their inhibition by the test compounds are determined by following the oxidation of ^3 H-25(OH)D3 (Amersham; specific activity about 0.61 mCi/nmole) as follows:
(§4) Confluent human keratinocytes in 1 ml of KGM and in 6-well plates are incubated in duplicate at 37° with ^3 H-25(OH)D3 for 1 hour (1-hydroxylase), 4 hours (sequential metabolism) and for a range of time interals between 1 and 24 hours, without and after preincubation with 10 nM of calcitriol, and without and with test inhibitory compounds added in a concentration range between 0 and 10 μM. Thereafter, the reaction is stopped with 1 ml of methanol per well, the cells are scraped off, transferred to a test tube together with the supernatant and two washings (with 1 ml of methanol and 0.8 ml of water).

[2] = molecular target: T2, 25-hydroxyvitamin D3-hydroxylases which attack the C20-27-side chain of vitamin D3 (Homo sapiens, UniProt Q07973); assay: Inhibition of side chain metabolism / vitamin D3-hydroxylases attacking the C20-27 side chain in calcitriol-pretreated keratinocytes (test a)); details: for inhibition of 25-hydroxyvitamin D3-hydroxylases which attack the C20-27 side chain (in words): selectivity versus calcitriol synthesis; for IC50: test a), human keratinocytes, pretreated with 10 nM calcitriol
T2 construct: Confluent human keratinocytes in 1 ml of KGM and in 6-well plates; endogenous in cells; host or cells: normal human epidermal keratinocytes pretreated overnight (16-17 h) with 10 nM calcitriol
T2 sequence (Q07973 36-514): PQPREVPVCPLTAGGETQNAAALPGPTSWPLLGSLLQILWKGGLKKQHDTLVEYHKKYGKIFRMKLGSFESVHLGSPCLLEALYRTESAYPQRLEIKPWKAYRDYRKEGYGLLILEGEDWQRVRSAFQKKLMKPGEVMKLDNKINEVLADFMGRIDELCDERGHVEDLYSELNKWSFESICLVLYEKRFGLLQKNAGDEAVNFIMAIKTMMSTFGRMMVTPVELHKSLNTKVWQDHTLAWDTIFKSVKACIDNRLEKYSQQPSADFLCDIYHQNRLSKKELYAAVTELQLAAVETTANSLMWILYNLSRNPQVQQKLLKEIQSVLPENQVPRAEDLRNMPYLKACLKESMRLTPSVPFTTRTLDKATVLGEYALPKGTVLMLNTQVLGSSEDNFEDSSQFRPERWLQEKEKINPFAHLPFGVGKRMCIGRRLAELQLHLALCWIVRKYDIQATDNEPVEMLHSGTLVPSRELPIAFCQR
Description: This can be determined in confluent cultures of human keratinocytes directly, while for determination of the activity of the hydroxylases attacking the C20-27--side chain a 16 hours pretreatment schedule of the confluent cultures with 1,25(OH)2 D3 (10 nM) has to precede which upregulates these activities (both methods are described in Bikle, D. D. et al., J. Clin. Invest. 78, 557 [1986]).
as §1, §2, §3, §4

[3] = test system: human keratinocytes; assay: 3H-Thymidine incorporation into human keratinocytes, antiproliferative effects of vitamin D metabolites in the presence of inhibitors (test b)); details: Keratinocyte; test b)
Description: Normal human keratinocytes are isolated from fresh adult skin obtained from mammary reduction and immediately used under sterile conditions. […] These conditions are chosen in order to avoid undefined contributions from vitamin D--metabolites possibly retained in the serum and/or feeder layer. After separation of the epidermis from the dermis with a sterile dermatome the epidermis is incubated in a 0.25% trypsin solution for 45 minutes at 37°. Thereafter the cells are scraped off and put in 50 ml of HBSS containing 10% FCS to block further trypsin digestion and centrifuged at 2000 rpm for 2 minutes. The resulting cell pellet suspended in KGM, a defined serum-free medium at low (0.06 mM) calcium concentration containing 0.1 ng/ml EGF, 5 μg/ml insulin, 0.5 μg/ml hydrocortisone, bovine pituitary extract and antibiotics (gentamycin, amphothericin) gives the primary culture. After 24 hours at 37° in an incubator with carbogen gassing (95% O2 /5% CO2) the unattached cells are removed, the flask washed and provided with fresh KGM. The culture medium is changed then every alternate day and the cells are passaged when they reach 80-90% confluency (usually 6 to 10 days after plating). For passaging old KGM is removed and the attached keratinocytes displaced by a short treatment (5 minutes) with 0.125% of trypsin, then put into HBSS+FCS, centrifuged and eventually resuspended in KGM in such a way that 1 plate of primary culture yields 3 plates first passage cells. In order to expand the final cell number keratinocytes are further cultivated as described above and generally used in their second passage.
^3 H-Thymidine incorporation is measured in 96-well plates as follows: Keratinocytes in 200 μl of KGM at low calcium concentration are plated at an initial density of 10^4 cells per well (second passage) and kept for 24 hours at 37° in an incubator with carbogen gassing (95% O2 /5% CO2). […]
Harvesting is done on a Filtermate 196-Harvester (Packard-Canberra). […] 50 μl of scintillation cocktail (MicroScint O, Packard) are added and ^3 H-activity is counted on a Microplate Scintillation Counter (Topcount, Packard Canberra).
Data are used as means ±SEM (n=3). The IC50 -values for the inhibition of proliferation by the vitamin D--metabolites in the presence of varying concentrations of inhibitors of side chain metabolism and vice versa are assessed by plotting the inverse proliferation rate versus one inhibitor concentration, with the concentration of the other inhibitors kept constant (Dixon Plot). Independent of the mechanism of inhibition the IC50 -values can be read in this plot from the intercept on the x-axis.

[4] = read-out: IC50 for stabilization of 3-epi 1,25(OH)2 D3 levels
[5] = read-out: IC50 for stabilization of levels of the sum of 1,25(OH)2 D3, 1,24,25(OH)3D3 and 1,24oxo,25(OH)2 D3
[6] = in presence of 1α,25(OH)2 D3, read-out: IC50 as regards the concentration required to double the antiproliferative effect of 1α,25(OH)2 D3
[7] = in presence of 25(OH)D3, read-out: IC50 as regards the concentration required to double the antiproliferative effect of 25(OH)D3

Question: What does the source list for `O=C(NC[C@H](c1ccccc1)n1ccnc1)c1ccc(-c2ccc(Cl)cc2)cc1` [Example 8, N-[4-(4-Chlorophenyl)benzoyl]-2-(1H-imidazol-1-yl)-2(S)-phenyl-1-aminoethane]?
Answer: interference with calcitriol synthesis via the 25(OH)D3-1-hydroxylase (in words) [1]: without interfering with its synthesis; IC50 [1]: 530 nM; inhibition of 25-hydroxyvitamin D3-hydroxylases which attack the C20-27 side chain (in words) [2]: selective inhibitors; IC50 [2, 4]: 40 nM; IC50 [2, 5]: 45 nM; IC50 [3, 6]: 30 nM; IC50 [3, 7]: 11 nM

Question: `O=C(NC[C@@H](c1ccccc1)n1ccnc1)c1ccc(-c2ccc(Cl)cc2)cc1` [Example 9, N-[4-(4-Chlorophenyl)benzoyl]-2-(1H-imidazol-1-yl)-2(R)-phenyl-1-aminoethane] was tested. Which “interference with calcitriol synthesis via the 25(OH)D3-1-hydroxylase (in words)” value [1] did it give?
Answer: without interfering with its synthesis

Question: What about the IC50 [1] of the same compound?
Answer: 620 nM

Question: What about the “inhibition of 25-hydroxyvitamin D3-hydroxylases which attack the C20-27 side chain (in words)” value [2] of the same compound?
Answer: selective inhibitors

Question: And the IC50 [2, 4]?
Answer: 12 nM

Question: What about the IC50 [2, 5] of the same compound?
Answer: 19 nM

Question: And the IC50 [3, 6]?
Answer: 35 nM

Question: What about the IC50 [3, 7] of the same compound?
Answer: 12 nM
